One test deals with ER β (Homo sapiens, UniProt Q92731). Nature of the test: Receptor binding assay for estrogen receptor beta. Conditions: for IC50 to ERβ / IC50: Table 5; for recognition of / binding activity to estrogen receptor β: summary of Tables 3 to 5; for IC50: read-out: IC50 to ERβ.
A further test concerns the target T1, ER α (Homo sapiens, UniProt P03372).
T1 sequence (P03372 1-595): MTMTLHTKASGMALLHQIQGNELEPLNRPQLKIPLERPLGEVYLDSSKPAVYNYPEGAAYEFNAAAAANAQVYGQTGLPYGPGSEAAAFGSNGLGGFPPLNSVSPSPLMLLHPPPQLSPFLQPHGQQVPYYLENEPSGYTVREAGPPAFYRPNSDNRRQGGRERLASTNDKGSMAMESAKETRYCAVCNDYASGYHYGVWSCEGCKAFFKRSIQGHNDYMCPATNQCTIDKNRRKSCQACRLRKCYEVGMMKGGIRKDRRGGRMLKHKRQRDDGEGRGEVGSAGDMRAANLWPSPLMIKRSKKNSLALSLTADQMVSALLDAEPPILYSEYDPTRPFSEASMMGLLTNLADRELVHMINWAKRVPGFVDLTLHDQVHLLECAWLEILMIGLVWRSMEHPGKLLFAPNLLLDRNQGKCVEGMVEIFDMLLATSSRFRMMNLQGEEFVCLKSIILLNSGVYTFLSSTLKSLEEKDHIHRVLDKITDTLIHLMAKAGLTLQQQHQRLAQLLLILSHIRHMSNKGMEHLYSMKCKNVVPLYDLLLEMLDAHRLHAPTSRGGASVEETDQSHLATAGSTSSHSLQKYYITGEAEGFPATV
Briefly: Receptor binding assay for estrogen receptor alpha. Conditions: for recognition of / binding activity to estrogen receptor α: summary of Tables 3 to 5.

The target of test [1] is anti-estradiol mAb clone 15. Briefly: Competitive immunoassay: inhibition of binding of labeled E2 (estradiol ovalbumin europium conjugate) to anti-E2 clone 15. Also on record: species or system mouse. Conditions: for IC50: Table 5, estradiol ovalbumin europium conjugate; for inhibition of the binding of estradiol ovalbumin europium conjugate to anti-E2 mAb clone 15 relative to peptides 1 and 2: compared with the linear or cyclic peptides 1 and 2. The text has this:
[…]. The linear peptide 1 is 15-amino acid long. We further explored the possibility whether smaller peptides derived from peptide 1 may have antibody binding activity and receptor binding activity. In order to find out the minimum amino acid sequence required in the linear peptide 1 for antibody and receptor binding, several peptides with varying length of from 4 to 14 amino acids long were synthesized, and were first evaluated in terms of binding to anti-estradiol (E2) mAb clone 15. The peptides showing similar or better antibody binding activity than the linear peptide 1 were further evaluated in terms of binding to ERα and β.

Setting [2] is: Table 5, read-out: IC50 to ER α.

Where two headings read alike, the source gives them in different places. Peptide text beside a SMILES is read from it.

Chain of ER β (Q92731 whole entry, species assumed): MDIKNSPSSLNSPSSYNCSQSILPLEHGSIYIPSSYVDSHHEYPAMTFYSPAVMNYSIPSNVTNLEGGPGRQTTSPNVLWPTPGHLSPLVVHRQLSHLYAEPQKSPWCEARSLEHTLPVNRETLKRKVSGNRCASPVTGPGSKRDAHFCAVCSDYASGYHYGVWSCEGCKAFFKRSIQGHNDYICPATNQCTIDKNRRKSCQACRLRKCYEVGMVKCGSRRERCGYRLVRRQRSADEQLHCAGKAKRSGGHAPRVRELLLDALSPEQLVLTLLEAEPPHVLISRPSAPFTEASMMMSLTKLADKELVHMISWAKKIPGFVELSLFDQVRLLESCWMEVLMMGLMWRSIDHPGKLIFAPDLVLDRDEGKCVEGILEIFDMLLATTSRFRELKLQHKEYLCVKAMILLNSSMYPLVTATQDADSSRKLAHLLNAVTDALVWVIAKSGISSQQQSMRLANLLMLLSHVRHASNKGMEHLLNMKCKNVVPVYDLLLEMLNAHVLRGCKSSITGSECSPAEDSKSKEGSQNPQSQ

Consider `NCCCC[C@H](N)C(=O)N[C@@H](CO)C(=O)N[C@@H](Cc1c[nH]c2ccccc12)C(=O)N[C@@H](Cc1ccccc1)C(=O)N[C@@H](Cc1ccccc1)C(=O)N[C@@H](CCC(=O)O)C(=O)O` [Peptide 19, KSWFFE] (H-KSWFFE-OH; N-terminus and C-terminus assumed), for which, on ER β, the “IC50 to ERβ” value is listed as “None” and the “recognition of / binding activity to estrogen receptor β” value is reported as “did not show any binding activity”. Besides, on ER α (Table 5), the “IC50 to ER α” value was “None”. Also, the “recognition of / binding activity to estrogen receptor α” value at ER α is “did not show any binding activity”. For the same compound, in test [1], the IC50 turned out to be 40 nM; the “inhibition of the binding of estradiol ovalbumin europium conjugate to anti-E2 mAb clone 15 relative to peptides 1 and 2” value is “one and half order of magnitude better”.
As to `C[C@H](N)C(=O)N[C@@H](CCCNC(=N)N)C(=O)N[C@@H](Cc1c[nH]c2ccccc12)C(=O)N[C@@H](Cc1ccccc1)C(=O)N[C@@H](Cc1ccccc1)C(=O)N[C@@H](CCC(=O)O)C(=O)O` [Peptide A-43, ARWFFE] (H-ARWFFE-OH), at ER β, the “IC50 to ERβ” value is recorded as “None” and the “recognition of / binding activity to estrogen receptor β” value is on record as “not β”. Also, the “recognition of / binding activity to estrogen receptor α” value on ER α is given as “recognized only the estrogen receptor α”. For the same compound, in test [1], the IC50 amounted to 40 nM; the “inhibition of the binding of estradiol ovalbumin europium conjugate to anti-E2 mAb clone 15 relative to peptides 1 and 2” value is “one and half order of magnitude better”. For the same compound, the “inhibition of binding of estradiol ovalbumin europium conjugate to anti-estradiol mAb clone 15” value in test [1] (text summary of Table 4) is listed as “showed inhibition”.
For `CC(C)C[C@H](N)C(=O)N[C@@H](CCCNC(=N)N)C(=O)N[C@@H](Cc1c[nH]c2ccccc12)C(=O)N[C@@H](Cc1ccccc1)C(=O)N[C@@H](Cc1ccccc1)C(=O)N[C@@H](CCC(=O)O)C(=O)O` [Peptide B38, LRWFFE] (H-LRWFFE-OH; N-terminus and C-terminus assumed), on ER β, the “IC50 to ERβ” value is “None” and the “recognition of / binding activity to estrogen receptor β” value is listed as “did not show any binding activity”. Moreover, the “IC50 to ER α” value at ER α (Table 5) is “None”. The “recognition of / binding activity to estrogen receptor α” value at ER α was “did not show any binding activity”. In test [1], the IC50 is 40 nM; the “inhibition of the binding of estradiol ovalbumin europium conjugate to anti-E2 mAb clone 15 relative to peptides 1 and 2” value was “one and half order of magnitude better”.
Turning to `CC(C)[C@H](N)C(=O)N[C@@H](CO)C(=O)N[C@@H](Cc1c[nH]c2ccccc12)C(=O)N[C@@H](Cc1ccccc1)C(=O)N[C@@H](Cc1ccccc1)C(=O)N[C@@H](CCC(=O)O)C(=O)O` [Peptide B34, VSWFFE] (H-VSWFFE-OH), on ER β, the IC50 was 100000 nM and the “recognition of / binding activity to estrogen receptor β” value is “recognized”. In addition, at ER α (setting [2]), the IC50 worked out at 250000 nM. For the same compound, the “recognition of / binding activity to estrogen receptor α” value at ER α is “recognized”. Moreover, in test [1], the IC50 came out at 6 nM; the “inhibition of the binding of estradiol ovalbumin europium conjugate to anti-E2 mAb clone 15 relative to peptides 1 and 2” value was “one and half order of magnitude better”.
Regarding `CC(C)[C@H](N)C(=O)N[C@@H](CCCNC(=N)N)C(=O)N[C@@H](Cc1c[nH]c2ccccc12)C(=O)N[C@@H](Cc1ccccc1)C(=O)N[C@@H](Cc1ccccc1)C(=O)N[C@@H](CCC(=O)O)C(=O)O` [Peptide 39, VRWFFE] (H-VRWFFE-OH), the IC50 at ER β and on ER α (setting [2]) was below 100000 nM in each case.
As for `CC[C@H](C)[C@H](N)C(=O)N[C@@H](CCCNC(=N)N)C(=O)N[C@@H](Cc1c[nH]c2ccccc12)C(=O)N[C@@H](Cc1ccccc1)C(=O)N[C@@H](Cc1ccccc1)C(=O)N[C@@H](CCC(=O)O)C(=O)O` [Peptide B37, IRWFFE] (H-IRWFFE-OH), on ER β, the IC50 is 250000 nM and the “recognition of / binding activity to estrogen receptor β” value is listed as “recognized only the ERβ”. In addition, the “IC50 to ER α” value on ER α (Table 5) is on record as “None”. For the same compound, in test [1], the IC50 came out at 20 nM; the “inhibition of the binding of estradiol ovalbumin europium conjugate to anti-E2 mAb clone 15 relative to peptides 1 and 2” value is “one and half order of magnitude better”.
For the compound `CC(C)C[C@@H]1NC(=O)[C@H](C)NC(=O)[C@@H]2CCCN2C(=O)[C@H](CC(C)C)NC(=O)[C@H](CCC(=O)O)NC(=O)[C@H](C)NC(=O)[C@@H](N)CSSC[C@@H](C(=O)O)NC(=O)[C@@H]2CCCN2C(=O)[C@@H]2CCCN2C(=O)[C@@H]2CCCN2C(=O)[C@@H]2CCCN2C(=O)[C@H](CCCCN)NC(=O)[C@H]([C@@H](C)O)NC(=O)[C@H](CCC(=O)O)NC(=O)[C@H](Cc2ccccc2)NC(=O)[C@H](Cc2ccccc2)NC(=O)[C@H](Cc2c[nH]c3ccccc23)NC(=O)[C@H](CCCNC(=N)N)NC(=O)[C@H](CCCCN)NC(=O)[C@H]([C@@H](C)O)NC(=O)[C@@H]2CCCN2C(=O)[C@H](CC(=O)O)NC1=O` [Peptide 2] (HELM PEPTIDE1{C.A.E.L.P.A.L.D.P.T.K.R.W.F.F.E.T.K.P.P.P.P.C}$PEPTIDE1,PEPTIDE1,1:R3-23:R3$$$V2.0; N-terminus and C-terminus assumed), the “IC50 to ERβ” value at ER β is “none”. Moreover, at ER α (FIG. 2, read-out: IC50, binding to ER α), the IC50 stood at 100000 nM.
Turning to WFFE [Peptide 46], the “recognition of / binding activity to estrogen receptor α” value at ER α is “did not show any inhibition”.
On to `CC(C)[C@H](N)C(=O)N[C@@H](CCCNC(=N)N)C(=O)N[C@@H](Cc1c[nH]c2ccccc12)C(=O)N[C@@H](Cc1ccccc1)C(=O)N[C@@H](Cc1ccc(O)cc1)C(=O)N[C@@H](CCC(=O)O)C(=O)O` [Peptide B35, VRWFYE] (H-VRWFYE-OH; N-terminus and C-terminus assumed), for which, at ER β, the “IC50 to ERβ” value is listed as “None” and the “recognition of / binding activity to estrogen receptor β” value is given as “did not show any binding activity”. The “IC50 to ER α” value on ER α (Table 5) is recorded as “None”. Besides, the “recognition of / binding activity to estrogen receptor α” value on ER α is “did not show any binding activity”. Further, in test [1], the concentration for half-maximal inhibition (IC50) stood at 6 nM; the “inhibition of the binding of estradiol ovalbumin europium conjugate to anti-E2 mAb clone 15 relative to peptides 1 and 2” value is “one and half order of magnitude better”.
`N=C(N)NCCC[C@H](NC(=O)[C@@H](N)CCCCN)C(=O)N[C@@H](Cc1c[nH]c2ccccc12)C(=O)N[C@@H](Cc1ccccc1)C(=O)N[C@@H](Cc1ccccc1)C(=O)N[C@@H](CCC(=O)O)C(=O)O` [Peptide 44, KRWFFE] (H-KRWFFE-OH): on ER β, the IC50 was determined as 400000 nM and the “recognition of / binding activity to estrogen receptor β” value is “recognized”. Also, on ER α (setting [2]), the IC50 was determined as 400000 nM. Further, at ER α, the “recognition of / binding activity to estrogen receptor α” value was “recognized”. In test [1], the IC50 was determined as 35 nM; the “inhibition of the binding of estradiol ovalbumin europium conjugate to anti-E2 mAb clone 15 relative to peptides 1 and 2” value was “one and half order of magnitude better”.
`CC(C)[C@H](N)C(=O)N1CCC[C@H]1C(=O)N[C@@H](Cc1c[nH]c2ccccc12)C(=O)N[C@@H](Cc1ccccc1)C(=O)N[C@@H](Cc1ccccc1)C(=O)N[C@@H](CCC(=O)O)C(=O)O` [Peptide B33, VPWFFE] (H-VPWFFE-OH; N-terminus and C-terminus assumed): at ER β, the “IC50 to ERβ” value is reported as “None” and the “recognition of / binding activity to estrogen receptor β” value was “did not show any binding activity”. Moreover, the “IC50 to ER α” value on ER α (Table 5) is given as “None”. The “recognition of / binding activity to estrogen receptor α” value on ER α is on record as “did not show any binding activity”. Further, in test [1], the IC50 came out at 6 nM; the “inhibition of the binding of estradiol ovalbumin europium conjugate to anti-E2 mAb clone 15 relative to peptides 1 and 2” value is “one and half order of magnitude better”.

What is called IC50 is the concentration that gives 50% inhibition.

These data come from patent publication US20050049186A1, “Peptides mimicking the biological activity of steroid hormones and their uses” (priority 2000, published 2005).
